# Assay results as given in PubChem BioAssay (NCI).
#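 Five concentrations, 48 hours, 96-well plates. GI50 is the concentration that inhibits growth by half. TGI: total growth inhibition.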 Where a SMILES comes first, the peptide text is derived from it. [ ]: non-standard residue; d: D form. The star is where a group is joined. ξ: configuration not given here. dIva = CC[C@@](C)(N)C(=O)O; Aib = CC(C)(N)C(=O)O; ξP = O=C(O)C1CCCN1; βAla = NCCC(=O)O; X5 = OCN*
# Tests used:
# Assay in all cases: NCI anticancer screen, dose series, 48 h
# 786-0 renal = tested on: 786-0 renal
# MOLT-4 leukemia = tested on: MOLT-4 leukemia
# RXF 393 renal = tested on: RXF 393 renal
# SK-MEL-2 melanoma = tested on: SK-MEL-2 melanoma
# SW-620 colon = tested on: SW-620 colon
# HL-60(TB) leukemia = tested on: HL-60(TB) leukemia
# HOP-92 NSCLC = tested on: HOP-92 NSCLC
# M14 melanoma = tested on: M14 melanoma
# SF-268 CNS = tested on: SF-268 CNS
# DU-145 prostate = tested on: DU-145 prostate
Structure (SMILES),TGI (786-0 renal),TGI (MOLT-4 leukemia),TGI (RXF 393 renal),TGI (SK-MEL-2 melanoma),TGI (SW-620 colon),TGI (HL-60(TB) leukemia),TGI (HOP-92 NSCLC),TGI (M14 melanoma),TGI (SF-268 CNS),GI50 (786-0 renal),GI50 (DU-145 prostate),TGI (DU-145 prostate),GI50 (HL-60(TB) leukemia),GI50 (M14 melanoma),GI50 (MOLT-4 leukemia),GI50 (RXF 393 renal),GI50 (SF-268 CNS),GI50 (SK-MEL-2 melanoma),GI50 (SW-620 colon)
C(=NCCN=Cc1cccc2ccccc12)c1cccc2ccccc12,> 100 µM,> 100 µM,> 100 µM,> 100 µM,> 100 µM,–,–,–,–,–,–,–,–,–,–,–,–,–,–
CCCCCCC(=O)CC(=O)C(=O)Nc1ccccc1C,> 100 µM,> 100 µM,> 100 µM,> 100 µM,> 59.4 µM,> 100 µM,> 100 µM,> 100 µM,> 100 µM,–,–,–,–,–,–,–,–,–,–
Nc1ncnc2c1ncn2COC/C=C/I,> 100 µM,> 100 µM,> 100 µM,> 100 µM,> 100 µM,–,> 100 µM,> 100 µM,> 100 µM,–,–,–,–,–,–,–,–,–,–
O=S1Cc2ccccc2CSS1 (stereo not given),29.1 µM,52.1 µM,13.8 µM,–,27.2 µM,20 µM,31.8 µM,27 µM,74.2 µM,–,–,–,–,–,–,–,–,–,–
CC[C@@](C)(NC(=O)[C@H](C)NC(=O)CCNC(=O)C(C)(C)NC(=O)[C@H](C)NC(=O)[C@@H]1CCCN1C(=O)[C@@](C)(CC)NC(=O)[C@H](Cc1ccccc1)NC(=O)C1CCCN1C(=O)C(C)(C)NC(=O)C1CCCN1C(=O)C(C)(C)NC(C)=O)C(=O)NCCC(=O)N[C@@H](CC(C)C)C(=O)NC(C)(C)C(=O)NCCC(=O)N[C@@H](CC(C)C)C(=O)NC(C)(C)C(=O)NC(C)(C)C(=O)N[C@@H](CC(C)C)C(=O)NCCC(=O)NCO (stereo not given in full) (Ac-[Aib][ξP][Aib][ξP]F[dIva]PA[Aib][βAla]A[dIva][βAla]L[Aib][βAla]L[Aib][Aib]L[βAla]-X5),0.414 µM,0.645 µM,0.436 µM,0.427 µM,0.403 µM,0.65 µM,–,0.391 µM,0.368 µM,0.203 µM,125 nM,0.338 µM,0.318 µM,188 nM,0.306 µM,221 nM,0.143 µM,0.202 µM,0.149 µM
CC(=O)Nc1ccc(OCC(O)CO)cc1 (stereo not given),70.2 µM,> 100 µM,> 100 µM,> 100 µM,21.6 µM,–,> 100 µM,> 100 µM,> 100 µM,–,–,–,–,–,–,–,–,–,–
COc1ccc([Se]c2ccc(OC)cc2)cc1,> 100 µM,> 100 µM,> 100 µM,> 100 µM,> 100 µM,> 100 µM,98.7 µM,> 100 µM,> 100 µM,–,–,–,–,–,–,–,–,–,–
C=C1CC(CC(=O)C(C)CC2CC(=C)C(=O)O2)OC1=O (stereo not given),43.3 µM,29.7 µM,37.9 µM,25.3 µM,24.2 µM,33.6 µM,32.1 µM,30 µM,48.6 µM,–,–,–,–,–,–,–,–,–,–
CC1=C(C(=O)NCc2ccccc2)C(c2ccccc2O)C(C(=O)NCc2ccccc2)=C(C)N1,33.7 µM,> 100 µM,34.4 µM,32.6 µM,32.3 µM,62.2 µM,48.7 µM,32.4 µM,55.3 µM,–,–,–,–,–,–,–,–,–,–
CCOc1cc[n+](C(=C=[N-])C#N)cc1,> 100 µM,> 100 µM,> 100 µM,–,> 100 µM,> 100 µM,> 100 µM,> 100 µM,> 100 µM,–,–,–,–,–,–,–,–,–,–
Nc1cc(N)c2nc(-c3ccccc3)c(Oc3ccc(Cl)c(Cl)c3)nc2c1,41.2 µM,> 100 µM,85.4 µM,23.3 µM,30.1 µM,> 100 µM,–,70.3 µM,52.5 µM,19.4 µM,–,27.1 µM,5.15 µM,14100 nM,6.28 µM,25200 nM,17.1 µM,5.63 µM,9.69 µM
CCN(CC)c1ccc(N=C2C=CC(=C(C#N)C#N)c3ccccc32)c(C)c1,6.24 µM,9.63 µM,3.24 µM,5.48 µM,–,3.61 µM,2.19 µM,3.6 µM,–,–,–,–,–,–,–,–,–,–,–
NC(C(=O)O)c1ccc(C(=O)O)cc1 (stereo not given),> 100 µM,> 100 µM,> 100 µM,> 100 µM,> 100 µM,> 100 µM,–,> 100 µM,> 100 µM,–,–,–,–,–,–,–,–,–,–
O=C1OC(=O)C2C1C1C(c3ccccc3)=C(c3ccccc3)C2(O)C2C(=O)OC(=O)C12 (stereo not given),> 100 µM,> 100 µM,–,> 100 µM,> 100 µM,–,> 100 µM,> 100 µM,> 100 µM,–,–,–,–,–,–,–,–,–,–
COC(=O)C(C(=O)C(=O)Nc1ccc(N)cc1[N+](=O)[O-])c1nc2ccc(Cl)cc2[nH]c1=O (stereo not given),> 100 µM,> 100 µM,> 100 µM,> 100 µM,> 100 µM,> 100 µM,> 100 µM,> 100 µM,> 100 µM,–,–,–,–,–,–,–,–,–,–
CCC(=O)Oc1ccc(/C=N/NC(N)=S)nc1,13.7 µM,> 100 µM,> 100 µM,> 100 µM,> 100 µM,> 100 µM,–,5.59 µM,> 100 µM,3.19 µM,3050 nM,> 100 µM,2.17 µM,2010 nM,3.3 µM,2930 nM,3.46 µM,33 µM,7.67 µM
N#CC1([N+](=O)[O-])C=C1c1ccccc1 (stereo not given),> 100 µM,> 100 µM,–,> 100 µM,41.6 µM,46.3 µM,–,> 100 µM,> 100 µM,–,–,–,–,–,–,–,–,–,–
CN/N=C(/CC(=O)c1sc(NNC(C)=O)nc1C)C(=O)Nc1ccc(OC)cc1OC,> 100 µM,> 100 µM,–,> 100 µM,> 100 µM,> 100 µM,> 100 µM,> 100 µM,> 100 µM,–,–,–,–,–,–,–,–,–,–
Cc1c(C(=O)Nc2ccc(Cl)cc2)nc(N)nc1-c1cccc(Cl)c1,> 100 µM,> 100 µM,> 100 µM,–,> 100 µM,> 100 µM,95.6 µM,> 100 µM,> 100 µM,–,–,–,–,–,–,–,–,–,–
COc1ccc(-c2cc(=O)c3cccnc3[nH]2)cc1,> 100 µM,> 100 µM,> 100 µM,> 100 µM,> 100 µM,57.1 µM,–,95.6 µM,> 100 µM,56.5 µM,–,> 100 µM,13 µM,–,–,–,–,–,–
CCC12C=CCN3CCC4(C(=C(C(=O)OC)C1)Nc1ccccc14)[C@H]32 (stereo not given in full),82 µM,93 µM,56.7 µM,52 µM,86 µM,88.7 µM,87.7 µM,50.8 µM,45.4 µM,–,–,–,–,–,–,–,–,–,–
